Test results as given in US10570155B2, “Imidazooxazole derivative having antitumor effect, and pharmaceutical composition including same” (KOREA INSTITUTE OF SCIENCE AND TECHNOLOGY, priority 2016, dated 2020).

Experiments:
C-RAF = C-RAF (Homo sapiens (Human), UniProt P04049, Y340D/Y341D); assay: Protein kinase enzymatic activity (Reaction Biology kinase hotspot, 33P-ATP); type: biochemical; settings: read-out: Inhibitory effect against kinase activity, C-RAF (IC50)
V600E-B-RAF = V600E-B-RAF (Homo sapiens (Human), UniProt P15056, V600E); assay: as above; type: biochemical; settings: read-out: Inhibitory effect against kinase activity, V600E-B-RAF (IC50)
V600E-B-RAF, sequence (P15056 whole entry V600E): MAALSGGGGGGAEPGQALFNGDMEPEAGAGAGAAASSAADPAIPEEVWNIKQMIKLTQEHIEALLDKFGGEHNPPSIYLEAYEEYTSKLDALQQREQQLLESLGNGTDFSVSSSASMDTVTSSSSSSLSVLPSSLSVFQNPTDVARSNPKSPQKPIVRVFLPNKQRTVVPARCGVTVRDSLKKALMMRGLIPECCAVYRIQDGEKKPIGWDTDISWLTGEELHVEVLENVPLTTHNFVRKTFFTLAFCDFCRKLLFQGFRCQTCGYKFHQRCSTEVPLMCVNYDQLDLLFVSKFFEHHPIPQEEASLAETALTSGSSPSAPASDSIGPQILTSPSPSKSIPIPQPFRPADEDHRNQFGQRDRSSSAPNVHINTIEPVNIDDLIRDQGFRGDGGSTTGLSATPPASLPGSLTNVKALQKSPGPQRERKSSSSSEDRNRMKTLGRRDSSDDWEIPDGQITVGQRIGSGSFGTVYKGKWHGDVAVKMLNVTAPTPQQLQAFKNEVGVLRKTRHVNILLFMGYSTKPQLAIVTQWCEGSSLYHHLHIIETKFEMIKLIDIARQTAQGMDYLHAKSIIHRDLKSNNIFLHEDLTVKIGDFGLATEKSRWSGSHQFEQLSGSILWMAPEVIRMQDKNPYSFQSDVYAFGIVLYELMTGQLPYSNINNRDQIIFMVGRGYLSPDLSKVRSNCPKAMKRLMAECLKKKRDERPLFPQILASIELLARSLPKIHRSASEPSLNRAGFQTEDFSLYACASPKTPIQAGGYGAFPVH

[1] = tested on: A375P cell line xenograft; assay: Tumor-inhibitory effects in melanoma mouse xenograft model; type: in vivo, nude mice; design: Tumor size: unit not given here
Experimental: In this experiment, A375P cell line which is a human-derived malignant melanoma cell line was subcutaneously administered to nude mice to prepare xenograft models, and the test material (compound 2II) was administered to the xenograft models to evaluate anti-cancer effects (GI: an excipient control group, G2: a group administered with 20 mg/kg/day of the test material, and G3: a group administered with 50 mg/kg/day of the test material).

UACC-62 = assay: NCI cancer cell line panel screening (SRB), melanoma cell line UACC-62; type: cell-based; settings: Homo sapiens, read-out: IC50 against melanoma cell line in vitro
Experimental: According to the standard protocol (http://dtp.nci.nih.gov/dtpstandard/dwindex/index.isp) of the US National Cancer Institute (NCI) (www.dtp.nci.nih.gov), screening of a cancer cell line panel was performed. Briefly, human cell lines were allowed to grow in an RPMI 1640 medium containing 5% FBS and 2 mM L-glutamine. For a general screening experiment, cells were inoculated in 96-well microtiter plates in 100 μl at a plating density ranging from 5000 cells/well to 40,000 cells/well depending on the doubling time of individual cell lines. After cell inoculation, the microtiter plates were incubated at 37° C., 5% CO2, 95% air, and 100% relative humidity for 24 hours prior to addition of test compounds. 24 hours later, two plates of each cell line were fixed in situ with trichloroacetic acid (TCA) to measure the cell population for each cell line at the time of test compound addition (Tz). Test compounds were solubilized in dimethyl sulfoxide at 400-fold the intended final maximum test concentration, and stored frozen prior to use. At the time of compound addition, an aliquot of frozen concentrate was thawed and diluted to twice the intended final maximum test concentration with a complete medium containing 50 μg/ml of gentamicin. Additional four concentration of 10-fold or ½ log serial dilutions were made to provide a total of five compound concentrations plus control. Aliquots of 100 μl of these different compound dilutions were added to appropriate microtiter wells already containing 100 μl of medium, resulting in the required final compound concentrations.
Following compound addition, the plates were incubated for additional 48 hours at 37° C., 5% CO2, 95% air, and 100% relative humidity. For adherent cells, the assay was terminated by the addition of cold TCA. Cells were fixed in situ by the gentle addition of 50 μl of cold 50% (w/v) TCA (final concentration, 10% TAC) and incubated at 4° C. for 60 minutes. The supernatant was discarded, and the plates were washed five times with tap water and air-dried. A sulforhodamine B (SRB) solution (100 μl) at 0.4% (w/v) in 1% acetic acid was added to each well, and plates were incubated at room temperature for 10 minutes. After staining, unbound dye was removed by washing five times with 1% acetic acid and the plates were air-dried. Bound stain was subsequently solubilized with 10 mM Trizma base, and the absorbance was read on an automated plate reader at a wavelength of 515 nm. For suspension cells, the methodology was the same except that the assay was terminated by fixing settled cells at the bottom of the wells by gently adding 50 μl of 80% TCA (final concentration, 16% TCA). Using the seven absorbance measurements [time zero (Tz), control growth (C), and test growth rate in the presence of compound at the five concentration levels (Ti)], the growth percentage was calculated at each of the compound concentration levels. Growth inhibition percentage was calculated as follows: [(Ti−Tz)/(C−Tz)]×100 for concentrations for which Ti>/=Tz [(Ti−Tz)/Tz]×100 for concentrations for which Ti<Tz.

[2] = 20 and 50 mg/kg/day, intravenous, twice per week for 3 weeks

C-RAF, sequence (P04049 306-648 Y340D/Y341D limits assumed): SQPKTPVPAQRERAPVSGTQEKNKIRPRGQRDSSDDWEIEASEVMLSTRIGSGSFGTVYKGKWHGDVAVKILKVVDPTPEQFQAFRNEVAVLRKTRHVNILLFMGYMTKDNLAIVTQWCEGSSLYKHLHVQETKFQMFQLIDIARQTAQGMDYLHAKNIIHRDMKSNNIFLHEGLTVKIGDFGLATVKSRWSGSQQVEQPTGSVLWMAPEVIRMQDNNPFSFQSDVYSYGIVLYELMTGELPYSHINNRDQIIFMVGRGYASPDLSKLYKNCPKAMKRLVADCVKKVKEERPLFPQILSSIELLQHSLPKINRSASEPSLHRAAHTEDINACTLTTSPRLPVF

Q: Which results are given for `CCN1CCN(CCNc2nccc(-c3c(-c4cccc(O)c4)nc4occn34)n2)S1(=O)=O` [2II, 2-Ethyl-5-(2-((4-(6-(3-hydroxylphenyl)imidazo[2,1-b]oxazol-5-yl)pyrimidin-2-yl)amino)ethyl)-1,2,5-thiadiazolidine 1,1-dioxide]?
A: IC50 (C-RAF): 0.75 nM; IC50 (V600E-B-RAF): 0.67 nM; General symptoms and deaths [1, 2]: no deaths or no abnormalities in general symptoms were observed; Increase of the tumor size [1, 2]: inhibited in a dose-dependent manner; Tumor size, difference between experimental groups ([1]; G1, G2 (20 mg/kg/day), G3 (50 mg/kg/day)): no significant difference between all experimental groups; Tumor size ([1]; G2, 20 mg/kg/day, day 0): 145.08 ± 20.85; Tumor size ([1]; G2, 20 mg/kg/day, day 4): 271.88 ± 60.05; Tumor size ([1]; G2, 20 mg/kg/day, day 7): 556.42 ± 161.21; Tumor size ([1]; G2, 20 mg/kg/day, day 11): 978.91 ± 258.24; Tumor size ([1]; G2, 20 mg/kg/day, day 14): 1711.5 ± 631.79; Tumor size ([1]; G2, 20 mg/kg/day, day 18): 2438.5 ± 962.99; Tumor size ([1]; G2, 20 mg/kg/day, day 21): 3200.6 ± 944.99; Body weight gain compared with excipient control group ([1]; G3, 50 mg/kg/day): significantly low; Body weight compared with control group (G1) ([1]; G3, 50 mg/kg/day, at 14 days and 21 days after administration): significantly low; Tumor size ([1]; G3, 50 mg/kg/day, day 0): 149.36 ± 20.91; Tumor size ([1]; G3, 50 mg/kg/day, day 4): 276.08 ± 86.17; Tumor size ([1]; G3, 50 mg/kg/day, day 7): 442.88 ± 73.08; Tumor size ([1]; G3, 50 mg/kg/day, day 11): 754.16 ± 211.86; Tumor size ([1]; G3, 50 mg/kg/day, day 14): 1174.7 ± 411.22; Tumor size ([1]; G3, 50 mg/kg/day, day 18): 1543.9 ± 411.21; Tumor size ([1]; G3, 50 mg/kg/day, day 21): 2063.1 ± 657.93; IC50 (UACC-62): 70 nM
